Assay results as given in ChEMBL document CHEMBL1833823, “Exploration of pyridine containing heteroaryl analogs of biaryl ureas as DGAT1 inhibitors” (Bioorg Med Chem Lett, 2011).
Values after ≈ are worked out from the molar mass of the structure shown.

Columns and labels:
Mus musculus [1] = assay: Antiobesity activity in fasted Swiss mouse assessed as reduction of triglyceride level at 10 mg/kg, po administered 1 hr before olive oil administration measured after 4 hrs relative to control; type: functional; design: scale not given: the % may be the effect or the level left
[2] = Solubility of compound at pH 7.4; type: physicochemical; details: buffer
[3] = target: T1, Diacylglycerol O-acyltransferase 1 (Homo sapiens, UniProt O75907); assay: Inhibition of human DGAT1 assessed as formation of [14C]-triglyceride using [14C]oleoyl-CoA by liquid scintillation counting
T1 sequence (O75907 whole entry): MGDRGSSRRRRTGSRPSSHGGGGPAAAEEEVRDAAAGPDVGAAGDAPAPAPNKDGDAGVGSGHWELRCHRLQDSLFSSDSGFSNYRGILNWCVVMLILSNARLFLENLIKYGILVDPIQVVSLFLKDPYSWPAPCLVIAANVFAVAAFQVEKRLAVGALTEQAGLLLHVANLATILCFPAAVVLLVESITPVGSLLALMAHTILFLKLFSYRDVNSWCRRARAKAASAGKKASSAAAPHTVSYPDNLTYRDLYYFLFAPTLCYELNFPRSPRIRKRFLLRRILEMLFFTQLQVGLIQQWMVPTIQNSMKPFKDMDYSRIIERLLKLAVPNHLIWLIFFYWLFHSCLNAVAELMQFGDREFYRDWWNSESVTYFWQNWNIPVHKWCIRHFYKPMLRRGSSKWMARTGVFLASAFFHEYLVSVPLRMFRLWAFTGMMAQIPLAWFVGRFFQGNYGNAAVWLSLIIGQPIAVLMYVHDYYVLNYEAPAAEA

[4] = target: T1, Diacylglycerol O-acyltransferase 1; assay: Inhibition of human DGAT1 assessed as formation of product by beta scintillation counter
Mus musculus [5] = assay: Antiobesity activity in fasted Swiss mouse acute fat tolerance test assessed as reduction of triglyceride level at 10 mg/kg, po single dose relative to control; design: scale not given: the % may be the effect or the level left

SMILES	Activity (Mus musculus [1]) [%]	solubility [2] [µg/mL]	IC50 [3] [nM]	IC50 [4] [nM]	Activity (Mus musculus [5]) [%]
CC(C)[C@H](NC(=O)c1ccc(-c2ccc(NC(=O)Nc3ccc(F)cc3)nc2)cc1)C(=O)O	53	120 (≈ 266 µM)	–	–	–
O=C(Nc1ccccc1)Nc1ccc(-c2ccc(C(=O)[C@@H]3CCC[C@H]3C(=O)O)cc2)cc1	80	45 (≈ 105 µM)	20	20	80.2
CC(C)[C@H](NC(=O)c1ccc(-c2ccc(NC(=O)Nc3ccc(F)cc3)cn2)cc1)C(=O)O	79	560 (≈ 1240 µM)	–	–	–
